Measured values: the supplement of paper PMC10307832

Columns and labels:
Test in all cases: relative viability (nuclei count vs DMSO), 5 days (fraction); higher = more cells survive
Vemurafenib + Decitabine = compound: CCCS(=O)(=O)Nc1ccc(F)c(C(=O)c2c[nH]c3ncc(-c4ccc(Cl)cc4)cc23)c1F [Vemurafenib] + Nc1ncn([C@H]2C[C@H](O)[C@@H](CO)O2)c(=O)n1 [Decitabine] (partner 2 µM)
Method in brief: (§1)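 Relative viability divides the nuclei count in treated wells by that in vehicle wells. Lung cancer cell lines were seeded in 1536-well plates, dosed by pin tool the next day, and fixed and stained after 5 days in one step with final 0.05% Triton X-100, 1% formaldehyde and 1 ug/ml Hoechst. Dosing was a single drug or a fixed anchor-drug dose plus five library-drug doses (not always all listed) in √10 steps, and values are medians of duplicate plates imaged at 4×.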

OSI-027 + Trametinib = compound: COc1cccc2cc(-c3nc([C@H]4CC[C@H](C(=O)O)CC4)n4ncnc(N)c34)[nH]c12 [OSI-027] + CC(=O)Nc1cccc(-n2c(=O)n(C3CC3)c(=O)c3c(Nc4ccc(I)cc4F)n(C)c(=O)c(C)c32)c1 [Trametinib] (partner 0.02 µM)
Method in brief: as §1

OSI-027 + Palbociclib = compound: COc1cccc2cc(-c3nc([C@H]4CC[C@H](C(=O)O)CC4)n4ncnc(N)c34)[nH]c12 [OSI-027] + CC(=O)c1c(C)c2cnc(Nc3ccc(N4CCNCC4)cn3)nc2n(C2CCCC2)c1=O [Palbociclib] (partner 0.5 µM)
Method in brief: as §1

Alpelisib + Palbociclib = compound: Cc1nc(NC(=O)N2CCC[C@H]2C(N)=O)sc1-c1ccnc(C(C)(C)C(F)(F)F)c1 [Alpelisib] + CC(=O)c1c(C)c2cnc(Nc3ccc(N4CCNCC4)cn3)nc2n(C2CCCC2)c1=O [Palbociclib] (partner 0.5 µM)
Method in brief: as §1

| Cell Line | relative viability (Vemurafenib + Decitabine; first compound 0.03162 µM) | relative viability (Vemurafenib + Decitabine; first compound 0.1 µM) | relative viability (Vemurafenib + Decitabine; first compound 0.3162 µM) | relative viability (Vemurafenib + Decitabine; first compound 1 µM) | relative viability (OSI-027 + Trametinib; first compound 0.01 µM) | relative viability (OSI-027 + Trametinib; first compound 0.03162 µM) | relative viability (OSI-027 + Trametinib; first compound 0.1 µM) | relative viability (OSI-027 + Trametinib; first compound 0.3162 µM) | relative viability (OSI-027 + Trametinib; first compound 1 µM) | relative viability (OSI-027 + Palbociclib; first compound 0.01 µM) | relative viability (OSI-027 + Palbociclib; first compound 0.03162 µM) | relative viability (OSI-027 + Palbociclib; first compound 0.1 µM) | relative viability (OSI-027 + Palbociclib; first compound 0.3162 µM) | relative viability (OSI-027 + Palbociclib; first compound 1 µM) | relative viability (Alpelisib + Palbociclib; first compound 0.04 µM) | relative viability (Alpelisib + Palbociclib; first compound 0.1265 µM) | relative viability (Alpelisib + Palbociclib; first compound 0.4 µM) | relative viability (Alpelisib + Palbociclib; first compound 1.265 µM) | relative viability (Alpelisib + Palbociclib; first compound 4 µM) |
| --- | --- | --- | --- | --- | --- | --- | --- | --- | --- | --- | --- | --- | --- | --- | --- | --- | --- | --- | --- |
| NCI-H1437 | 0.523 | 0.565 | 0.531 | 0.579 | 0.43 | 0.406 | 0.493 | 0.39 | 0.248 | 0.286 | 0.324 | 0.309 | 0.357 | 0.22 | 0.327 | 0.314 | 0.356 | 0.264 | 0.314 |
| NCI-H1648 | – | 0.351 | 0.762 | 0.463 | 0.481 | 0.449 | – | 0.49 | 0.321 | 0.37 | 0.267 | – | 0.222 | 0.266 | 0.259 | 0.304 | 0.241 | 0.234 | 0.237 |
| NCI-H1650 | 0.348 | 0.499 | 0.413 | 0.461 | 0.485 | 0.504 | 0.614 | 0.6 | 0.408 | 0.361 | 0.344 | 0.278 | 0.357 | 0.286 | 0.423 | 0.275 | 0.403 | 0.29 | 0.298 |
| NCI-H1651 | 0.532 | 0.633 | 0.494 | 0.621 | 0.829 | 0.736 | 0.838 | 0.805 | 0.607 | 0.534 | 0.502 | 0.497 | 0.459 | 0.393 | 0.512 | 0.514 | 0.594 | 0.483 | 0.484 |
| NCI-H1666 | 0.612 | 0.724 | 0.686 | 0.764 | 0.865 | 0.848 | 0.843 | 0.765 | 0.692 | 0.691 | 0.675 | 0.65 | 0.577 | 0.671 | 0.681 | 0.606 | 0.693 | 0.571 | 0.493 |
| NCI-H1734 | 0.569 | 0.486 | 0.506 | 0.506 | 0.667 | 0.687 | 0.659 | 0.586 | 0.42 | 0.396 | 0.369 | 0.356 | 0.311 | 0.255 | 0.307 | 0.282 | 0.373 | 0.263 | 0.227 |
| NCI-H1755 | 0.705 | 0.616 | 0.73 | 0.711 | 0.738 | 0.759 | 0.761 | 0.654 | 0.501 | 0.483 | 0.444 | 0.421 | 0.445 | 0.336 | 0.417 | 0.41 | 0.458 | 0.371 | 0.382 |
| NCI-H1792 | 0.539 | 0.564 | – | 0.477 | 0.528 | 0.303 | 0.412 | 0.408 | 0.219 | 0.578 | 0.451 | 0.623 | 0.604 | 0.308 | 0.631 | 0.62 | 0.658 | 0.508 | 0.321 |
| NCI-H1793 | 0.449 | 0.325 | 0.672 | 0.492 | 0.489 | 0.431 | 0.35 | 0.344 | 0.21 | 0.3 | 0.3 | 0.236 | 0.187 | 0.181 | 0.367 | 0.287 | 0.332 | 0.324 | 0.245 |
